Series [1] has as its system male Wistar rats, transient middle cerebral artery occlusion (tMCAO). Kind of series: Neurofunctional score in transient focal cerebral ischemia (tMCAO). Type of series: in vivo. The following applies: for Neurofunctional impairment compared with vehicle: 24 h and 48 h. The protocol: For the transient focal cerebral ischemia experimental model we used 12-week-old male Wistar rats (300–350 g, Charles River), housed under standard conditions with food and water ad libitum. The animals were anesthetized by an intraperitoneal injection of a mixture of 100 mg/kg ketamine, 5 mg/kg diazepam, and 0.3 mg/kg atropine. Anesthesia was maintained during the surgical procedure by inhalation of 1–1.5% sevoflurane in 80% medicinal air plus 20% O2. For the transient occlusion of the right middle cerebral artery (tMCAO, 60 min), we followed the intraluminal suture procedure as originally described, adapted to our experimental setup. The procedure included continuous monitoring of cortical perfusion (CP, by Laser-Doppler flowmetry), arterial blood pressure, and core temperature, and discontinuous measurement of glycemia levels during preischemia (basal), ischemia, and reperfusion stages. Buprenorphine (subcutaneous, 0.05 mg/kg) was used as an analgesic. Forty-eight hours after the ischemic insult, the animals were euthanized by intracardiac injection of potassium chloride (200 mg/kg) under deep anesthesia, and the brains were obtained.
A power analysis (see above) provided a sample size of 6 subjects per group. A total of 35 animals was used in this study. The animals were randomly assigned to four experimental tMCAO groups, treated with (1) vehicle; (2) QN23, 1.5 mg/kg; (3) QN23, 2.5 mg/kg; and (4) QN23, 4 mg/kg. QN23 was dissolved in vehicle and injected through the femoral vein 20 min after the end of tMCAO. Nine animals were excluded from the study, based on predefined criteria, because of death within the first 24 h after the procedure (1 vehicle, 1 QN23-treated at 2.5 mg/kg, and 4 QN23-treated at 4.0 mg/kg) or due to no infarct after the procedure (1 vehicle, 1 QN23-treated at 1.5 mg/kg, and 1 QN23-treated at 2.5 mg/kg). Experiments were conducted in compliance with the legislation on the protection of animals used for scientific purposes in Spain (RD 53/2013) and the EU (Directive 2010/63/EU). […]
Twenty-four and 48 hours after the ischemic insult, the rats’ neurofunctional status was evaluated following the procedure previously reported. The severity of functional deficits was determined with the sum of the score of four tests assessing (a) spontaneous activity (moving/exploring = 0, no moving or moving only when pushed = 1), (b) circling to the left (none = 0, circling when elevated by the tail and pushed = 1, circling without displacement, spinning = 2), (c) parachute reflex: protective abduction of forelimbs (symmetrical = 0, asymmetrical, contralateral forelimb retracted = 1), and (d) resistance to left forepaw stretching (not allowed = 0, allowed = 1). […]

Series [2] relates to female Sprague Dawley rats. Briefly: Toxicity study, 4-day repeated i.v. dose. Type of series: in vivo, rat. The protocol:
For the toxicokinetics study of QN23, female Sprague Dawley rats (9–10 weeks, Envigo, Barcelona, Spain) were divided into three groups (n = 6 per group) and treated intravenously with different concentrations of QN23 (2.0, 6.0, and 18 mg/kg), in vehicle solution (ethanol/polyethylene glycol 400/saline, 1:200:60 v/v), as a single bolus of 1 mL injection at 3 mL/min. Samples of plasma were taken at 0.25, 0.5, 1, 2, 4, and 8 h after the first administration (on day 1) and QN23 concentration was determined by liquid chromatography–mass spectrometry in tandem (LC-MS/MS) analysis for pharmacokinetic study. For the determination of the toxicokinetic parameters, a noncompartmental analysis was performed using the Phoenix 64 WinNonlin software (version 8.0, Certara, Sant Louis, MO, USA). This study was carried out by Swiss BioQuant AG (Reinach, Switzerland). For the toxicity study of QN23, rats were divided into four groups (n = 5 per group) and treated intravenously with vehicle (control group) or different concentrations of QN23 (2.0, 6.0, and 18 mg/kg) as a single bolus injection in a 4-day repeated dose as described above. Pathology analyses, comprising hematology, clinical biochemistry, and coagulation, were performed, and heart, kidney, liver, and spleen necropsies were collected for macroscopic analysis. This study was carried out by Vivotecnia Research S.L (Madrid, Spain).

On the set-up of series [3]: method as in PMID 30715875. The following applies: in vitro; cited from earlier work.
[4] abbreviates: four-day repeated i.v. dose, 2.0, 6.0 and 18 mg/kg.
[5] abbreviates: four-day repeated i.v. dose, at some doses, no treatment-related effects concluded.

Regarding `COc1ccc2nc(Cl)c(/C=[N+](\[O-])C(C)(C)C)cc2c1` [QN23, (Z)-N-tert-Butyl-1-(2-chloro-6-methoxyquinolin-3-yl)methanimine Oxide], the “Neurofunctional impairment compared with vehicle” value in series [1] (1.5 mg/kg and 2.5 mg/kg i.v. 20 min after end of tMCAO) is “significantly reduced”. In series [1] (2.5 mg/kg i.v., tMCAO), the “Animals that died within 24 h” value is recorded as “one”. Besides, in series [1] (4 mg/kg i.v. 20 min after end of tMCAO), the “Neurofunctional impairment compared with vehicle” value is “not at 4 mg/kg”. Further, in series [1] (4 mg/kg i.v., tMCAO), the “Animals that died before 24 h” value is on record as “four”. Further, the “Tolerability of repeated intravenous administration” value in series [2] (2.0, 6.0 and 18 mg/kg i.v. for four days) is listed as “well tolerated”. Further, the Treatment-related systemic signs result in series [2] (2.0, 6.0 and 18 mg/kg i.v., four-day repeated dose, compared with control group) is given as “no treatment-related systemic signs were detected”. For the same molecule, in series [2] (setting [4]), the “Absolute or relative organ weights versus control group” value is listed as “no significant differences”; the Food intake result is on record as “no effects were observed”; the “Macroscopic findings at necropsy (heart, kidneys, liver, spleen)” value was “no macroscopic findings”. Also, in series [2] (setting [5]), the “Alkaline phosphatase (ALP) level, slight variation” value is listed as “decreased” and the “Aspartate aminotransferase (AST) level, slight variation” value was “increased”. Also, the “Hydroxyl radical (·OH) scavenging” value in series [3] is listed as “potent scavenger”.

These data come from PMC9220178, “Preclinical Characterization of Antioxidant Quinolyl Nitrone QN23 as a New Candidate for the Treatment of Ischemic Stroke” (Antioxidants, 2022).
